Assay results from ChEMBL document CHEMBL5303573, “Mapping human microbiome drug metabolism by gut bacteria and their genes” (Nature, 2019).

How the values were obtained:
[1] = The drug is tested on Escherichia coli strain: BW25113 for biotransformation. The drug concentrations were measured before and after a 12-h incubation by liquid-chromatography-coupled mass spectrometry (LC–MS); details: 2 µM
[2] = akkermansia muciniphila, 12 h, 2 µM
Description: The drug is tested on Akkermansia muciniphila strain: ATCC BAA-835 for biotransformation. The drug concentrations were measured before and after a 12-h incubation by liquid-chromatography-coupled mass spectrometry (LC–MS)

[3] = The drug is tested on Coprococcus comes strain: ATCC27758 for biotransformation. The drug concentrations were measured before and after a 12-h incubation by liquid-chromatography-coupled mass spectrometry (LC–MS); assay type: ADME; set-up: dose 2 uM, timepoint 0 vs 12 hours; details: 2 µM
[4] = The drug is tested on Clostridium ramosum strain: DSM1402 for biotransformation. The drug concentrations were measured before and after a 12-h incubation by liquid-chromatography-coupled mass spectrometry (LC–MS); details: thomasclavelia ramosa, 2 µM
[5] = The drug is tested on Anaerococcus hydrogenalis strain: DSM7454 for biotransformation. The drug concentrations were measured before and after a 12-h incubation by liquid-chromatography-coupled mass spectrometry (LC–MS); details: 2 µM
[6] = roseburia intestinalis, 12 h, 2 µM
Description: The drug is tested on Roseburia intestinalis strain: L1-82 for biotransformation. The drug concentrations were measured before and after a 12-h incubation by liquid-chromatography-coupled mass spectrometry (LC–MS)

[7] = The drug is tested on Enterococcus faecalis strain: V583 for biotransformation. The drug concentrations were measured before and after a 12-h incubation by liquid-chromatography-coupled mass spectrometry (LC–MS); details: 2 µM
[8] = The drug is tested on Clostridium symbiosum strain: ATCC14940 for biotransformation. The drug concentrations were measured before and after a 12-h incubation by liquid-chromatography-coupled mass spectrometry (LC–MS); details: 2 µM
[9] = The drug is tested on Eubacterium hallii strain: DSM3353 for biotransformation. The drug concentrations were measured before and after a 12-h incubation by liquid-chromatography-coupled mass spectrometry (LC–MS); details: anaerobutyricum hallii, 2 µM
[10] = bacteroides stercoris, 12 h, 2 µM
Description: The drug is tested on Bacteroides stercoris strain: ATCC43183 for biotransformation. The drug concentrations were measured before and after a 12-h incubation by liquid-chromatography-coupled mass spectrometry (LC–MS)

[11] = The drug is tested on Bacteroides finegoldii strain: DSM17565 for biotransformation. The drug concentrations were measured before and after a 12-h incubation by liquid-chromatography-coupled mass spectrometry (LC–MS); details: 2 µM
[12] = The drug is tested on Anaerotruncus colihominis strain: DSM17241 for biotransformation. The drug concentrations were measured before and after a 12-h incubation by liquid-chromatography-coupled mass spectrometry (LC–MS); details: 2 µM
[13] = The drug is tested on Eubacterium ventriosum strain: ATCC27560 for biotransformation. The drug concentrations were measured before and after a 12-h incubation by liquid-chromatography-coupled mass spectrometry (LC–MS); assay type: ADME; set-up: dose 2 uM, timepoint 0 vs 12 hours; details: 2 µM
[14] = The drug is tested on Bifidobacterium ruminantium strain: fecal isolate for biotransformation. The drug concentrations were measured before and after a 12-h incubation by liquid-chromatography-coupled mass spectrometry (LC–MS); details: 2 µM
[15] = The drug is tested on Edwardsiella tarda strain: ATCC23685 for biotransformation. The drug concentrations were measured before and after a 12-h incubation by liquid-chromatography-coupled mass spectrometry (LC–MS); details: 2 µM
[16] = bacteroides fragilis, 12 h, 2 µM
Description: The drug is tested on Bacteroides fragilis strain: DS-208 for biotransformation. The drug concentrations were measured before and after a 12-h incubation by liquid-chromatography-coupled mass spectrometry (LC–MS)

[17] = The drug is tested on Subdoligranulum variabile strain: DSM15176 for biotransformation. The drug concentrations were measured before and after a 12-h incubation by liquid-chromatography-coupled mass spectrometry (LC–MS); details: 2 µM
[18] = bacteroides thetaiotaomicron, 12 h, 2 µM
Description: The drug is tested on Bacteroides thetaiotaomicron strain: 3731 for biotransformation. The drug concentrations were measured before and after a 12-h incubation by liquid-chromatography-coupled mass spectrometry (LC–MS)

[19] = The drug is tested on Bacteroides fragilis strain: ATCC43859 for biotransformation. The drug concentrations were measured before and after a 12-h incubation by liquid-chromatography-coupled mass spectrometry (LC–MS); details: 2 µM
[20] = The drug is tested on Bacteroides coprophilus strain: DSM18228 for biotransformation. The drug concentrations were measured before and after a 12-h incubation by liquid-chromatography-coupled mass spectrometry (LC–MS); details: 2 µM

Compound	Bacterial Biotransformation [1]	Bacterial Biotransformation [2]	Bacterial Biotransformation [3]	Bacterial Biotransformation [4]	Bacterial Biotransformation [5]	Bacterial Biotransformation [6]	Bacterial Biotransformation [7]	Bacterial Biotransformation [8]	Bacterial Biotransformation [9]	Bacterial Biotransformation [10]	Bacterial Biotransformation [11]	Bacterial Biotransformation [12]	Bacterial Biotransformation [13]	Bacterial Biotransformation [14]	Bacterial Biotransformation [15]	Bacterial Biotransformation [16]	Bacterial Biotransformation [17]	Bacterial Biotransformation [18]	Bacterial Biotransformation [19]	Bacterial Biotransformation [20]
O=C(O[C@H]1C[C@H]2CC[C@@H](C1)[N+]21CCCC1)C(O)(c1ccccc1)c1ccccc1.[Cl-] [TROSPIUM CHLORIDE]	Compound NOT metabolized	Compound NOT metabolized	Compound NOT metabolized	Compound NOT metabolized	Compound NOT metabolized	Compound NOT metabolized	Compound NOT metabolized	Compound NOT metabolized	Compound NOT metabolized	Compound NOT metabolized	Compound NOT metabolized	Compound NOT metabolized	Compound NOT metabolized	Compound NOT metabolized	Compound NOT metabolized	Compound NOT metabolized	Compound NOT metabolized	Compound NOT metabolized		
Cc1ccc(/C(=C\CN2CCCC2)c2ccccn2)cc1 [TRIPROLIDINE]		Compound NOT metabolized		Compound NOT metabolized	Compound NOT metabolized	Compound NOT metabolized	Compound NOT metabolized	Compound NOT metabolized	Compound NOT metabolized	Compound NOT metabolized	Compound NOT metabolized	Compound NOT metabolized	Compound NOT metabolized		Compound NOT metabolized	Compound NOT metabolized	Compound NOT metabolized	Compound NOT metabolized	Compound NOT metabolized	Compound NOT metabolized
CC12CC3CC(C)(C1)CC(N)(C3)C2 [MEMANTINE]	Compound NOT metabolized	Compound NOT metabolized	Compound NOT metabolized	Compound NOT metabolized	Compound NOT metabolized		Compound NOT metabolized	Compound NOT metabolized	Compound NOT metabolized	Compound NOT metabolized	Compound NOT metabolized	Compound NOT metabolized		Compound metabolized	Compound NOT metabolized	Compound NOT metabolized	Compound NOT metabolized	Compound NOT metabolized		Compound NOT metabolized
O=C(NC(Cc1cc(=O)[nH]c2ccccc12)C(=O)O)c1ccc(Cl)cc1 (configuration not stated) [REBAMIPIDE]		Compound NOT metabolized	Compound NOT metabolized	Compound NOT metabolized	Compound NOT metabolized	Compound NOT metabolized	Compound NOT metabolized	Compound NOT metabolized	Compound NOT metabolized	Compound NOT metabolized	Compound NOT metabolized	Compound NOT metabolized		Compound NOT metabolized	Compound NOT metabolized		Compound NOT metabolized	Compound NOT metabolized		Compound NOT metabolized
COC(=O)C(c1ccccc1)C1CCCCN1 (configuration not stated) [METHYLPHENIDATE]	Compound metabolized	Compound NOT metabolized	Compound NOT metabolized				Compound NOT metabolized		Compound NOT metabolized	Compound NOT metabolized	Compound NOT metabolized	Compound NOT metabolized	Compound NOT metabolized	Compound metabolized	Compound NOT metabolized	Compound NOT metabolized	Compound NOT metabolized	Compound NOT metabolized	Compound NOT metabolized	
CCCCC(=O)O[C@]1(C(=O)CO)[C@@H](C)C[C@H]2[C@@H]3CCC4=CC(=O)C=C[C@]4(C)[C@@]3(F)[C@@H](O)C[C@@]21C [BETAMETHASONE VALERATE]	Compound metabolized		Compound metabolized	Compound NOT metabolized	Compound NOT metabolized	Compound NOT metabolized	Compound NOT metabolized	Compound NOT metabolized		Compound metabolized	Compound metabolized	Compound NOT metabolized		Compound NOT metabolized	Compound NOT metabolized	Compound metabolized	Compound metabolized	Compound metabolized		
CN(C)C(=O)C(CCN1CCC(O)(c2ccc(Cl)cc2)CC1)(c1ccccc1)c1ccccc1 [LOPERAMIDE]	Compound metabolized			Compound NOT metabolized	Compound NOT metabolized	Compound metabolized	Compound NOT metabolized	Compound NOT metabolized	Compound NOT metabolized	Compound metabolized		Compound NOT metabolized	Compound NOT metabolized		Compound NOT metabolized		Compound NOT metabolized	Compound NOT metabolized		Compound metabolized
